Results taken from ChEMBL document CHEMBL3046521, “Synthesis and antitumor activity of (4-hydroxyphenyl)[5-substituted alkyl/aryl)-2-thioxo-1,3,4-thiadiazol-3-yl]methanone and [(3,4-disubstituted)-1,3-thiazol-2ylidene]-4-hydroxybenzohydrazide” (2011).

Tests used:
Assay type in all cases: functional
[1] = test system: SNB-19; assay: Cytotoxicity against Homo sapiens (human) SNB19 cells after 48 hr by sulforhodamine B assay; details: SNB-19, 48 h
[2] = test system: OVCAR-3; assay: Cytotoxicity against Homo sapiens (human) OVCAR3 cells after 48 hr by sulforhodamine B assay; details: OVCAR-3, 48 h
[3] = test system: EKVX; assay: Cytotoxicity against Homo sapiens (human) EKVX cells after 48 hr by sulforhodamine B assay
[4] = test system: Malme-3M; assay: Cytotoxicity against Homo sapiens (human) MALME-3M cells after 48 hr by sulforhodamine B assay
[5] = Cytotoxicity against Homo sapiens (human) NCI-ADR-RES cells after 48 hr by sulforhodamine B assay
[6] = test system: SK-MEL-28; assay: Cytotoxicity against Homo sapiens (human) SK-MEL-28 cells after 48 hr by sulforhodamine B assay; details: SK-MEL-28, 48 h
[7] = test system: MDA-MB-231; assay: Cytotoxicity against Homo sapiens (human) MDA-MB-231 cells after 48 hr by sulforhodamine B assay; details: MDA-MB-231, 48 h
[8] = test system: M14; assay: Cytotoxicity against Homo sapiens (human) M14 cells after 48 hr by sulforhodamine B assay; details: M14, 48 h
[9] = test system: NCI-H226; assay: Cytotoxicity against Homo sapiens (human) NCI-H226 cells after 48 hr by sulforhodamine B assay; details: NCI-H226, 48 h
[10] = test system: SN12C; assay: Cytotoxicity against Homo sapiens (human) SN12C cells after 48 hr by sulforhodamine B assay
[11] = test system: OVCAR-4; assay: Cytotoxicity against Homo sapiens (human) OVCAR4 cells after 48 hr by sulforhodamine B assay; details: OVCAR-4, 48 h
[12] = test system: HOP-92; assay: Cytotoxicity against Homo sapiens (human) HOP92 cells after 48 hr by sulforhodamine B assay; details: HOP-92, 48 h
[13] = test system: MOLT-4; assay: Cytotoxicity against Homo sapiens (human) MOLT4 cells after 48 hr by sulforhodamine B assay; details: MOLT-4, 48 h
[14] = test system: TK-10; assay: Cytotoxicity against Homo sapiens (human) TK10 cells after 48 hr by sulforhodamine B assay; details: TK-10, 48 h
[15] = test system: OVCAR-8; assay: Cytotoxicity against Homo sapiens (human) OVCAR8 cells after 48 hr by sulforhodamine B assay; details: OVCAR-8, 48 h
[16] = test system: HCT-116; assay: Cytotoxicity against Homo sapiens (human) HCT116 cells after 48 hr by sulforhodamine B assay; details: HCT-116, 48 h
[17] = test system: BT-549; assay: Cytotoxicity against Homo sapiens (human) BT549 cells after 48 hr by sulforhodamine B assay; details: BT-549, 48 h
[18] = test system: RXF 393; assay: Cytotoxicity against Homo sapiens (human) RXF393 cells after 48 hr by sulforhodamine B assay; details: RXF 393, 48 h
[19] = test system: SK-OV-3; assay: Cytotoxicity against Homo sapiens (human) SKOV3 cells after 48 hr by sulforhodamine B assay; details: SK-OV-3, 48 h
[20] = test system: OVCAR-5; assay: Cytotoxicity against Homo sapiens (human) OVCAR5 cells after 48 hr by sulforhodamine B assay; details: OVCAR-5, 48 h
[21] = test system: SF-268; assay: Cytotoxicity against Homo sapiens (human) SF268 cells after 48 hr by sulforhodamine B assay; details: SF-268, 48 h
[22] = test system: UACC-257; assay: Cytotoxicity against Homo sapiens (human) UACC257 cells after 48 hr by sulforhodamine B assay; details: UACC-257, 48 h
[23] = test system: LOX IMVI; assay: Cytotoxicity against Homo sapiens (human) LOXIMVI cells after 48 hr by sulforhodamine B assay
[24] = test system: SF-539; assay: Cytotoxicity against Homo sapiens (human) SF539 cells after 48 hr by sulforhodamine B assay; details: SF-539, 48 h
[25] = test system: HCT-15; assay: Cytotoxicity against Homo sapiens (human) HCT15 cells after 48 hr by sulforhodamine B assay; details: HCT-15, 48 h
[26] = test system: HCC 2998; assay: Cytotoxicity against Homo sapiens (human) HCC2998 cells after 48 hr by sulforhodamine B assay; details: HCC 2998, 48 h
[27] = test system: K562; assay: Cytotoxicity against Homo sapiens (human) K562 cells after 48 hr by sulforhodamine B assay; details: K562, 48 h
[28] = test system: HL-60(TB); assay: Cytotoxicity against Homo sapiens (human) HL-60(TB) cells after 48 hr by sulforhodamine B assay; details: HL-60, 48 h
[29] = test system: A549; assay: Cytotoxicity against Homo sapiens (human) A549 cells after 48 hr by sulforhodamine B assay; details: A549, 48 h
[30] = test system: CCRF-CEM; assay: Cytotoxicity against Homo sapiens (human) CCRF-CEM cells after 48 hr by sulforhodamine B assay
[31] = test system: MDA-MB-468; assay: Cytotoxicity against Homo sapiens (human) MDA-MB-468 cells after 48 hr by sulforhodamine B assay; details: MDA-MB-468, 48 h

SMILES: COc1ccc(-c2cs/c(=N\NC(=O)c3ccc(O)cc3)n2-c2ccc(OC)cc2OC)cc1
- GI50 [1]: 10.7 µM
- LC50 [1]: > 100 µM
- TGI ([1]; read-out: pTGI (converted)): > 100 µM
- GI50 [2]: 3.8 µM
- LC50 [2]: 95.5 µM
- TGI ([2]; read-out: pTGI (converted)): 17 µM
- GI50 [3]: 6.92 µM
- LC50 [3]: > 100 µM
- TGI ([3]; read-out: pTGI (converted)): > 100 µM
- GI50 [4]: 5.37 µM
- LC50 [4]: > 100 µM
- TGI ([4]; read-out: pTGI (converted)): 64.6 µM
- GI50 [5]: 2.95 µM
- LC50 [5]: > 100 µM
- TGI ([5]; read-out: pTGI (converted)): 8.32 µM
- GI50 [6]: 7.24 µM
- LC50 (concentration killing 50% of cells) [6]: > 100 µM
- TGI ([6]; read-out: pTGI (converted)): 53.7 µM
- GI50 [7]: 3.16 µM
- LC50 [7]: > 100 µM
- TGI ([7]; read-out: pTGI (converted)): 20 µM
- GI50 [8]: 5.5 µM
- LC50 [8]: > 100 µM
- TGI ([8]; read-out: pTGI (converted)): 27.5 µM
- GI50 [9]: 4.27 µM
- LC50 [9]: > 100 µM
- TGI ([9]; read-out: pTGI (converted)): > 100 µM
- GI50 [10]: 6.61 µM
- LC50 [10]: > 100 µM
- TGI ([10]; read-out: pTGI (converted)): 57.5 µM
- GI50 [11]: 10.2 µM
- LC50 [11]: > 100 µM
- TGI ([11]; read-out: pTGI (converted)): > 100 µM
- GI50 [12]: 3.31 µM
- LC50 [12]: > 100 µM
- TGI ([12]; read-out: pTGI (converted)): 37.2 µM
- GI50 [13]: 1.2 µM
- LC50 [13]: > 100 µM
- TGI ([13]; read-out: pTGI (converted)): 23.4 µM
- GI50 [14]: 13.5 µM
- LC50 [14]: > 100 µM
- TGI ([14]; read-out: pTGI (converted)): 75.9 µM
- GI50 [15]: 10.2 µM
- LC50 [15]: > 100 µM
- TGI ([15]; read-out: pTGI (converted)): > 100 µM
- GI50 [16]: 5.13 µM
- LC50 [16]: > 100 µM
- TGI ([16]; read-out: pTGI (converted)): 28.2 µM
- GI50 [17]: 14.1 µM
- LC50 [17]: > 100 µM
- TGI ([17]; read-out: pTGI (converted)): 69.2 µM
- GI50 [18]: 5.37 µM
- LC50 [18]: > 100 µM
- TGI ([18]; read-out: pTGI (converted)): > 100 µM
- GI50 [19]: 15.1 µM
- LC50 [19]: > 100 µM
- TGI ([19]; read-out: pTGI (converted)): 100 µM
- GI50 [20]: 6.92 µM
- LC50 [20]: > 100 µM
- TGI ([20]; read-out: pTGI (converted)): 38 µM
- GI50 [21]: 5.75 µM
- LC50 [21]: > 100 µM
- TGI ([21]; read-out: pTGI (converted)): 60.3 µM
- GI50 [22]: 15.1 µM
- LC50 [22]: > 100 µM
- TGI ([22]; read-out: pTGI (converted)): > 100 µM
- GI50 [23]: 3.8 µM
- LC50 [23]: 85.1 µM
- TGI ([23]; read-out: pTGI (converted)): 15.8 µM
- GI50 [24]: 5.13 µM
- LC50 [24]: 63.1 µM
- TGI ([24]; read-out: pTGI (converted)): 20.4 µM
- GI50 [25]: 3.55 µM
- LC50 (concentration killing 50% of cells) [25]: > 100 µM
- TGI ([25]; read-out: pTGI (converted)): > 100 µM
- GI50 [26]: 1.95 µM
- LC50 [26]: 53.7 µM
- TGI ([26]; read-out: pTGI (converted)): 5.25 µM
- GI50 [27]: 2.19 µM
- LC50 [27]: > 100 µM
- TGI ([27]; read-out: pTGI (converted)): > 100 µM
- GI50 [28]: 3.02 µM
- CC50 ([28]; read-out: pLC50 (the source's name) (converted)): > 100 µM
- TGI ([28]; read-out: pTGI (converted)): 38 µM
- GI50 [29]: 6.03 µM
- LC50 [29]: > 100 µM
- TGI ([29]; read-out: pTGI (converted)): > 100 µM
- GI50 [30]: 9.77 µM
- LC50 [30]: > 100 µM
- TGI ([30]; read-out: pTGI): > 100 µM
- GI50 [31]: 3.89 µM
- LC50 [31]: > 100 µM
- TGI ([31]; read-out: pTGI (converted)): > 100 µM
